Data as given in patent US8329706B2, “Oxazolidinone derivatives” (Actelion Pharmaceuticals Ltd., priority 2009, dated 2012).

Columns and labels:
human orexin-2 receptor = molecular target: T1, human orexin-2 receptor (Homo sapiens, UniProt O43614); assay: FLIPR intracellular calcium assay, orexin receptor antagonistic activity (OX2); assay type: cell-based; settings: CHO cells expressing human orexin-2 receptor; agonist 3 nM orexin-A; normalized to on-plate reference; * geomean n = 5, *2 geomean n = 2
T1 construct: expressed in transfected cells; host or cells: CHO cells (G418 selection)
T1 sequence (O43614 1-444): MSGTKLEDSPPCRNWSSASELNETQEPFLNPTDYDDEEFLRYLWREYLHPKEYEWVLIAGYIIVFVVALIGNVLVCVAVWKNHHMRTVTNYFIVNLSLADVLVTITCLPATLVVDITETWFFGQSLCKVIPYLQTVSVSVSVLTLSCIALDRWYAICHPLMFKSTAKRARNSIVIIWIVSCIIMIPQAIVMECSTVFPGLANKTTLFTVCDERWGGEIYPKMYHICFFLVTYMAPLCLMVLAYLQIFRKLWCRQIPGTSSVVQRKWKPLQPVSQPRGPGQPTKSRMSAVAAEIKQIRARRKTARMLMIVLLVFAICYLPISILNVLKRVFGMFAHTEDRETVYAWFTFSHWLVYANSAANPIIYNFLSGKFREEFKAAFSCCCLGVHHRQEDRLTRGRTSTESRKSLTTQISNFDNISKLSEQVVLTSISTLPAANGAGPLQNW
Experimental: (§1) The orexin receptor antagonistic activity of the compounds of formula (I) is determined in accordance with the following experimental method.
(§2) Chinese hamster ovary (CHO) cells expressing the human orexin-1 receptor and the human orexin-2 receptor, respectively, are grown in culture medium (Ham F-12 with L-Glutamine) containing 300 μg/ml G418, 100 U/ml penicillin, 100 μg/ml streptomycin and 10% heat inactivated fetal calf serum (FCS). The cells are seeded at 20′000 cells/well into 384-well black clear bottom sterile plates (Greiner). The seeded plates are incubated overnight at 37° C. in 5% CO2.
(§3) Human orexin-A as an agonist is prepared as 1 mM stock solution in MeOH:water (1:1), diluted in HBSS containing 0.1% bovine serum albumin (BSA), NaHCO3: 0.375 g/l and 20 mM HEPES for use in the assay at a final concentration of 3 nM.
(§4) Antagonists are prepared as 10 mM stock solution in DMSO, then diluted in 384-well plates using DMSO followed by a transfer of the dilutions into in HBSS containing 0.1% bovine serum albumin (BSA), NaHCO3: 0.375 g/l and 20 mM HEPES. On the day of the assay, 50 μl of staining buffer (HBSS containing 1% FCS, 20 mM HEPES, NaHCO3: 0.375 g/l, 5 mM probenecid (Sigma) and 3 μM of the fluorescent calcium indicator fluo-4 AM (1 mM stock solution in DMSO, containing 10% pluronic) is added to each well. The 384-well cell-plates are incubated for 50 min at 37° C. in 5% CO2 followed by equilibration at rt for 30-120 min before measurement.
(§5) Within the Fluorescent Imaging Plate Reader (FLIPR Tetra, Molecular Devices), antagonists are added to the plate in a volume of 10 μl/well, incubated for 10 min and finally 10 μl/well of agonist is added. Fluorescence is measured for each well at 1 second intervals, and the height of each fluorescence peak is compared to the height of the fluorescence peak induced by 3 nM orexin-A with vehicle in place of antagonist. For each antagonist, the IC50 value (the concentration of compound needed to inhibit 50% of the agonistic response) is determined and normalized using the obtained IC50 value of a on-plate reference compound. Optimized conditions were achieved by adjustment of pipetting speed and cell splitting regime. The calculated IC50 values of the compounds may fluctuate depending on the daily cellular assay performance. Fluctuations of this kind are known to those skilled in the art.

human orexin-1 receptor = molecular target: T2, human orexin-1 receptor (Homo sapiens, UniProt O43613); assay: FLIPR intracellular calcium assay, orexin receptor antagonistic activity (OX1); assay type: cell-based; settings: CHO cells expressing human orexin-1 receptor; agonist 3 nM orexin-A; normalized to on-plate reference; * geomean n = 5, *2 geomean n = 2
T2 construct: expressed in transfected cells; host or cells: CHO cells (G418 selection)
T2 sequence (O43613 1-425): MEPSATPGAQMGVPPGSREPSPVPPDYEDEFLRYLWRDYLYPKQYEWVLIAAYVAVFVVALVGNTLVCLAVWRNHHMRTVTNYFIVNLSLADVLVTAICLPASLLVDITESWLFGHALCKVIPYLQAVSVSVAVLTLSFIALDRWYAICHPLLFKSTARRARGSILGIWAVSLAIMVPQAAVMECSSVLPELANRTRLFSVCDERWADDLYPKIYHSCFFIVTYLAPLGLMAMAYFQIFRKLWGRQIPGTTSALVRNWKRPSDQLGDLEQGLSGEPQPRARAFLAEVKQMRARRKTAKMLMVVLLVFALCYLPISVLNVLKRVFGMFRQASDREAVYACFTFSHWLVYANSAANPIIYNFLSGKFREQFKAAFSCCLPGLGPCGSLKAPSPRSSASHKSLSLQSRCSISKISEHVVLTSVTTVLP
Experimental: as §1, §2, §3, §4, §5

| Compound | IC50 (human orexin-2 receptor) | IC50 (human orexin-1 receptor) |
| --- | --- | --- |
| CCOc1ccccc1C1OCC(=O)N1Cc1ccc(C(F)(F)F)c(F)c1 (centres unmarked) [Example 15, 2-(2-Ethoxy-phenyl)-3-(3-fluoro-4-trifluoromethyl-benzyl)-oxazolidin-4-one] | 359 nM | > 10000 nM |
| CCOc1ccccc1C1OCC(=O)N1Cc1cccc(C(F)(F)F)c1 (centres unmarked) [Example 5, 2-(2-Ethoxy-phenyl)-3-(3-trifluoromethyl-benzyl)-oxazolidin-4-one] | 462 nM | > 10000 nM |
| CCOc1ccccc1C1OCC(=O)N1Cc1ccc(OC(F)(F)F)cc1 (centres unmarked) [Example 6, 2-(2-Ethoxy-phenyl)-3-(4-trifluoromethoxy-benzyl)-oxazolidin-4-one] | 55 nM | > 10000 nM |
| CCOc1ccccc1C1OCC(=O)N1Cc1ccc(Cl)cc1Cl (centres unmarked) [Example 30, 3-(2,4-Dichloro-benzyl)-2-(2-ethoxy-phenyl)-oxazolidin-4-one] | 844 nM | 3050 nM |
| CCOc1ccccc1C1OCC(=O)N1Cc1cc(C(F)(F)F)cc(Cl)c1F (centres unmarked) [Example 10, 3-(3-Chloro-2-fluoro-5-trifluoromethyl-benzyl)-2-(2-ethoxy-phenyl)-oxazolidin-4-one] | 693 nM | 8410 nM |
| COc1cccc(OC)c1C1OCC(=O)N1Cc1c(C)cccc1C (centres unmarked) [Example 44, 2-(2,6-Dimethoxy-phenyl)-3-(2,6-dimethyl-benzyl)-oxazolidin-4-one] | 467 nM | 1760 nM |
| CCOc1ccccc1C1OCC(=O)N1Cc1ccc(F)c(C(F)(F)F)c1 (centres unmarked) [Example 14, 2-(2-Ethoxy-phenyl)-3-(4-fluoro-3-trifluoromethyl-benzyl)-oxazolidin-4-one] | 169 nM | > 10000 nM |
| COc1cccc(OC)c1C1OCC(=O)N1Cc1c(C)cc(C)cc1C (centres unmarked) [Example 41, 2-(2,6-Dimethoxy-phenyl)-3-(2,4,6-trimethyl-benzyl)-oxazolidin-4-one] | 681 nM | 542 nM |
| CCOc1ccccc1C1OCC(=O)N1Cc1ccc(F)c(Cl)c1 (centres unmarked) [Example 9, 3-(3-Chloro-4-fluoro-benzyl)-2-(2-ethoxy-phenyl)-oxazolidin-4-one] | 79 nM | 8740 nM |
| CCOc1ccccc1C1OCC(=O)N1Cc1ccc(C(F)(F)F)cc1F (centres unmarked) [Example 22, 2-(2-Ethoxy-phenyl)-3-(2-fluoro-4-trifluoromethyl-benzyl)-oxazolidin-4-one] | 839 nM | > 10000 nM |
| COc1cccc(OC)c1C1OCC(=O)N1Cc1ccc(F)c(C(F)(F)F)c1 (centres unmarked) [Example 38, 2-(2,6-Dimethoxy-phenyl)-3-(4-fluoro-3-trifluoromethyl-benzyl)-oxazolidin-4-one] | 730 nM | 1380 nM |
| 3-(3-Chloro-4-methyl-benzyl)-2-(2,6-dimethoxy-phenyl)-oxazolidin-4-one [Example 43] | 349 nM | 553 nM |
| CCOc1ccccc1C1OCC(=O)N1Cc1c(F)ccc(F)c1Cl (centres unmarked) [Example 16, 3-(2-Chloro-3,6-difluoro-benzyl)-2-(2-ethoxy-phenyl)-oxazolidin-4-one] | 3810 nM | 590 nM |
| CCOc1ccccc1C1OCC(=O)N1Cc1ccccc1F (centres unmarked) [Example 20, 2-(2-Ethoxy-phenyl)-3-(2-fluoro-benzyl)-oxazolidin-4-one] | 262 nM | > 10000 nM |

Further lines, results first:

| IC50 (human orexin-2 receptor) | IC50 (human orexin-1 receptor) | Compound |
| --- | --- | --- |
| 2270 nM | 188 nM | COc1ccc(CN2C(=O)C(C)(C)OC2c2c(OC)cccc2OC)cc1 (centres unmarked) [Example 72, 2-(2,6-Dimethoxy-phenyl)-3-(4-methoxy-benzyl)-5,5-dimethyl-oxazolidin-4-one] |
| 111 nM | 164 nM | COc1cccc(OC)c1C1O[C@H](C)C(=O)N1Cc1ccc(OC(F)(F)F)c(Cl)c1 (stereo partly drawn) [Example 56, 3-(3-Chloro-4-trifluoromethoxy-benzyl)-2-(2,6-dimethoxy-phenyl)-(R)-5-methyl-oxazolidin-4-one] |
| 46 nM | 421 nM | COc1cccc(F)c1C1OC(C)(C)C(=O)N1Cc1ccc(Oc2ccccc2)cc1 (centres unmarked) [Example 84, 2-(2-Fluoro-6-methoxy-phenyl)-5,5-dimethyl-3-(4-phenoxy-benzyl)-oxazolidin-4-one] |
| 1520 nM | 788 nM | CCOc1ccccc1C1OCC(=O)N1Cc1cc(Cl)ccc1Cl (centres unmarked) [Example 46, 3-(2,5-Dichloro-benzyl)-2-(2-ethoxy-phenyl)-oxazolidin-4-one] |
| 133 nM | 25 nM | COc1cccc(OC)c1C1OC(C)(C)C(=O)N1Cc1ccc(OC(F)(F)F)c(Cl)c1 (centres unmarked) [Example 58, 3-(3-Chloro-4-trifluoromethoxy-benzyl)-2-(2,6-dimethoxy-phenyl)-5,5-dimethyl-oxazolidin-4-one] |
| 7260 nM | 2990 nM | COc1cccc(OC)c1C1OC(C)(C)C(=O)N1Cc1ccc(Oc2ncccn2)cc1 (centres unmarked) [Example 95, 2-(2,6-Dimethoxy-phenyl)-5,5-dimethyl-3-[4-(pyrimidin-2-yloxy)-benzyl]-oxazolidin-4-one] |
| 322 nM | 25 nM | COc1cccc(OC)c1C1OC(C)(C)C(=O)N1Cc1ccc(OC(F)(F)F)c(F)c1 (centres unmarked) [Example 67, 2-(2,6-Dimethoxy-phenyl)-3-(3-fluoro-4-trifluoromethoxy-benzyl)-5,5-dimethyl-oxazolidin-4-one] |
| 222 nM | 411 nM | COc1cccc(OC)c1C1OC(C)(C)C(=O)N1Cc1nc2ccccc2s1 (centres unmarked) [Example 64, 3-Benzothiazol-2-ylmethyl-2-(2,6-dimethoxy-phenyl)-5,5-dimethyl-oxazolidin-4-one] |
| 108 nM | 178 nM | COc1cccc(OC)c1C1O[C@H](C)C(=O)N1Cc1ccc(OC(F)(F)F)c(F)c1 (stereo partly drawn) [Example 55, 2-(2,6-Dimethoxy-phenyl)-3-(3-fluoro-4-trifluoromethoxy-benzyl)-(R)-5-methyl-oxazolidin-4-one] |
| 236 nM | 413 nM | COc1cccc(OC)c1C1OC(C)(C)C(=O)N1Cc1ccc(Oc2ccccc2)cn1 (centres unmarked) [Example 90, 2-(2,6-Dimethoxy-phenyl)-5,5-dimethyl-3-(5-phenoxy-pyridin-2-ylmethyl)-oxazolidin-4-one] |
| 159 nM | 3240 nM | COc1cccc(OC)c1C1OCC(=O)N1Cc1ccc(OC(C)C)cc1 (centres unmarked) [Example 60, 2-(2,6-Dimethoxy-phenyl)-3-(4-isopropoxy-benzyl)-oxazolidin-4-one] |
| 484 nM | 114 nM | CCCOc1ccc(CN2C(=O)C(C)(C)OC2c2c(OC)cccc2OC)cc1 (centres unmarked) [Example 77, 2-(2,6-Dimethoxy-phenyl)-5,5-dimethyl-3-(4-propoxy-benzyl)-oxazolidin-4-one] |
| 243 nM | 6320 nM | COc1cccc(OC)c1C1OCC(=O)N1Cc1ccc(OCC2CC2)cc1 (centres unmarked) [Example 65, 3-(4-Cyclopropylmethoxy-benzyl)-2-(2,6-dimethoxy-phenyl)-oxazolidin-4-one] |
| 150 nM | 80 nM | COc1cccc(OCCCO)c1C1OC(C)(C)C(=O)N1Cc1ccc(Oc2ccccc2)cc1 (centres unmarked) [Example 99, 2-[2-(3-Hydroxy-propoxy)-6-methoxy-phenyl]-5,5-dimethyl-3-(4-phenoxy-benzyl)-oxazolidin-4-one] |
